Our source for the IC50 values is patent US9273046B2, “Fused tricyclic compounds as Raf kinase inhibitors” (BeiGene, LTD., priority 2011, dated 2016).

For one experiment, the target named is B-Raf (V600E) (Homo sapiens (Human), UniProt P15056, V600E). Put plainly: Raf IC50 assay, time-resolved fluorescence energy transfer (TR-FRET), B-Raf. The settings on record: 0.0625 nM B-Raf, 0.1 mM ATP, GST-tagged MEK1 substrate, 60 min preincubation; read-out: B-Raf (V600E) IC50. In kind it is biochemical. The protocol: The enzyme was incubated with the compounds at room temperature for 60 minutes and the reactions were initiated by the addition of ATP and GST-MEK1. […] Plates were sealed and incubated at room temperature for 2 hours, and then the TR-FRET signals were read on BMG PHERAstar FS instrument. The IC50 for each compound was calculated by non linear regression by Graphpad Prism software.
Background: TR-FRET usually uses a lanthanide donor and a delayed reading to cut background.

A further experiment concerns the target C-Raf (Y340D/Y341D) (Homo sapiens (Human), UniProt P04049, Y340D/Y341D). In words: Raf IC50 assay, time-resolved fluorescence energy transfer (TR-FRET), C-Raf. The format is biochemical. The following applies: 0.5 nM C-Raf, 0.1 mM ATP, GST-tagged MEK1 substrate, 60 min preincubation. The protocol: The assay was carried out in reactions (10 μL) containing 0.0625 nM B-Raf or 0.5 nM C-Raf, 25 mM Tris pH7.4, 10 mM MgCl2, 0.5 mM EGTA, 0.5 mM […], 5 mM beta-glycerophosphate, 0.01% Triton X-100, 2.5 mM DTT, 0.1% BSA, 0.1 mM ATP, 13.7 nM GST-tagged MEK1 (Full-length protein with K97R mutation, recombinant protein purified from bacterial expression system) and 0-5 μM compounds disclosed herein (final concentration of 1% DMSO). The enzyme was incubated with the compounds at room temperature for 60 minutes and the reactions were initiated by the addition of ATP and GST-MEK1. After incubating at room temperature for 60 minutes, an equal volume of stop buffer containing 25 mM Tris pH7.4, 400 mM KF, 50 mM EDTA, 0.01% BSA, 0.01% Triton X-100, 1 test of Eu3+ Cryptate-conjugated rabbit polyclonal antibody anti-Phospho MEK1/2 (Ser217/221) and 1 test of d2-conjugated mouse monoclonal antibody anti-glutathione S-transferase was added to stop the reactions. Plates were sealed and incubated at room temperature for 2 hours, and then the TR-FRET signals were read on BMG PHERAstar FS instrument. The IC50 for each compound was calculated by non linear regression by Graphpad Prism software.

Structures are written as SMILES. pIC50: −log10 of the molar value.

C-Raf (Y340D/Y341D), sequence (P04049 whole entry Y340D/Y341D): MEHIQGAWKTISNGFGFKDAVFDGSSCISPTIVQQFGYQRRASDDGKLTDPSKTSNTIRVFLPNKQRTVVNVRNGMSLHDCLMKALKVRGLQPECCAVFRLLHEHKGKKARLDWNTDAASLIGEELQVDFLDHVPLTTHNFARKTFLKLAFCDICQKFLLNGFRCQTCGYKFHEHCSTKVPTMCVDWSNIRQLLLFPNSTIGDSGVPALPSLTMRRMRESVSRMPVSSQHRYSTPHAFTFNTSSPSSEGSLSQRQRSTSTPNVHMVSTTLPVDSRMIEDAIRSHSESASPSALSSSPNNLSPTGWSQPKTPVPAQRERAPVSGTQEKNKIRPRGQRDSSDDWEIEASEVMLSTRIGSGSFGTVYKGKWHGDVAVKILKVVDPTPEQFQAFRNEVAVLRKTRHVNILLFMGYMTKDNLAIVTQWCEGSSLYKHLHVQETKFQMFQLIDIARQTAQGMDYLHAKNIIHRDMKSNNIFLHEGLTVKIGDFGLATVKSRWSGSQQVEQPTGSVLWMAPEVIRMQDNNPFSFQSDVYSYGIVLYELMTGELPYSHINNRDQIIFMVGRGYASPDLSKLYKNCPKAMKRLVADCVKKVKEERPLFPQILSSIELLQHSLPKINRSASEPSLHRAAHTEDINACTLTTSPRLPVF
B-Raf (V600E), sequence (P15056 whole entry V600E): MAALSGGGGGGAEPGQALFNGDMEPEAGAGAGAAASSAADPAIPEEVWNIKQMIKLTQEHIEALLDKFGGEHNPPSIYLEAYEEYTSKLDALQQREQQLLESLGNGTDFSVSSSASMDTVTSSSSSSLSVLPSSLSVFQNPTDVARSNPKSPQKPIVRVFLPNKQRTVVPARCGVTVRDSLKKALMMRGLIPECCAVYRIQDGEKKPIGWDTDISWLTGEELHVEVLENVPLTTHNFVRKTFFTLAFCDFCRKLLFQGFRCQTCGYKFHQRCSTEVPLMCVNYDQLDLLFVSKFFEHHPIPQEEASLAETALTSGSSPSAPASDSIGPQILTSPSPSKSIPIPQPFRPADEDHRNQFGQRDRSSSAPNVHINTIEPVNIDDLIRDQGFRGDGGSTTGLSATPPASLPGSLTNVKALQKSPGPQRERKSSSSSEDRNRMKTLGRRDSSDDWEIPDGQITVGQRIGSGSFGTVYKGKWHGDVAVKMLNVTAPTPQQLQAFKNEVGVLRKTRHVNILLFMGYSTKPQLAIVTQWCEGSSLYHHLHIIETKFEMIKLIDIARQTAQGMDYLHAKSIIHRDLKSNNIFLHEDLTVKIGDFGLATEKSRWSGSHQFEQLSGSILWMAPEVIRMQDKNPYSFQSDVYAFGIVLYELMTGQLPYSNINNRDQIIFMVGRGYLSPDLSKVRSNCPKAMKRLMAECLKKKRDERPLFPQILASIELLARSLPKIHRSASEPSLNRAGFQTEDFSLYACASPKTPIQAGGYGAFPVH

For the compound `O=C1CCc2c(Oc3ccc4c(c3)C3C(O4)C3c3nc4cc(F)c(F)cc4[nH]3)ccnc2N1` (centres unmarked) [Compound 2.11], the negative-log IC50 (pIC50) was 8.23 at B-Raf (V600E) and 8.48 on C-Raf (Y340D/Y341D).
Taken in the same sequence, the figures for `O=C1CCc2c(Oc3ccc4c(c3)C3C(O4)C3c3nc4ccc(Cl)cc4[nH]3)ccnc2N1` (centres unmarked) [Compound 2.12] were 7.92 and 8.39.
For `O=C1CCc2c(Oc3ccc4c(c3)C3C(O4)C3c3nc4ccc(Br)cc4[nH]3)ccnc2N1` (centres unmarked) [Compound 2.13], the pIC50 is 8.14 on B-Raf (V600E) and 8.77 against C-Raf (Y340D/Y341D).
In the case of `O=C1CCc2c(Oc3ccc4c(c3)C3C(O4)C3c3nc4ccc(OC(F)(F)F)cc4[nH]3)ccnc2N1` (centres unmarked) [Compound 2.14], the pIC50 was 7.55 on B-Raf (V600E) and 8.01 against C-Raf (Y340D/Y341D).
The like results for `Cn1c(C2C3Oc4ccc(Oc5ccnc6c5CCC(=O)N6)cc4C32)nc2ccccc21` (centres unmarked) [Compound 2.15] were, in that order, 7.92 and 8.44.
The like results for `COc1ccc2nc(C3C4Oc5ccc(Oc6ccnc7c6CCC(=O)N7)cc5C43)[nH]c2c1` (centres unmarked) [Compound 2.16] were, in that order, 7.82 and 8.42.
For `O=C1CCc2c(Oc3ccc4c(c3)C3C(O4)C3c3nc4cc(Cl)c(F)cc4[nH]3)ccnc2N1` (centres unmarked) [Compound 2.17], the pIC50 on B-Raf (V600E) is 8.27; on C-Raf (Y340D/Y341D), 8.23.
The like results for `O=C1CCc2c(Oc3ccc4c(c3)C3C(O4)C3c3nc4cccc(C(F)(F)F)c4[nH]3)ccnc2N1` (centres unmarked) [Compound 2.18] were, in that order, 7.05 and 8.21.
Taken in the same sequence, the figures for `O=C1CCc2c(Oc3ccc4c(c3)C3C(O4)C3c3nc4cccc(F)c4[nH]3)ccnc2N1` (centres unmarked) [Compound 2.19] were 7.96 and 8.80.
Taken in the same sequence, the figures for `CC(C)(C)c1ccc2nc(C3C4Oc5ccc(Oc6ccnc7c6CCC(=O)N7)cc5C43)[nH]c2c1` (centres unmarked) [Compound 2.20] were 7.48 and 8.36.
Regarding `NC(=O)c1ccc2nc(C3C4Oc5ccc(Oc6ccnc7c6CCC(=O)N7)cc5C43)[nH]c2c1` (centres unmarked) [Compound 2.22], the pIC50 was 8.40 on B-Raf (V600E) and 9.00 against C-Raf (Y340D/Y341D).
The like results for `Cn1c(C2C3Oc4ccc(Oc5ccnc6c5CCC(=O)N6)cc4C32)nc2ccc(C(F)(F)F)cc21` (centres unmarked) [Compound 2.23] were, in that order, 6.69 and 7.46.
With `Cn1c(C2C3Oc4ccc(Oc5ccnc6c5CCC(=O)N6)cc4C32)nc2cc(C(F)(F)F)ccc21` (centres unmarked) [Compound 2.24], the values for the negative logarithm of the IC50 (pIC50) at B-Raf (V600E) and at C-Raf (Y340D/Y341D) were 7.33 and 8.37, respectively.
The like results for `O=C1CCc2c(Oc3cccc4c3OC3C(c5nc6ccc(C(F)(F)F)cc6[nH]5)C43)ccnc2N1` (centres unmarked) [Compound 2.25] were, in that order, 6.07 and 7.44.
Taken in the same sequence, the figures for `O=C1CCc2c(Oc3ccc4c(c3)C3C(O4)C3c3nc(-c4ccncc4)c[nH]3)ccnc2N1` (centres unmarked) [Compound 2.31] were 8.43 and 9.46.
For the compound `O=C1CCc2c(Oc3ccc4c(c3)C3C(O4)C3c3nc(-c4ccccc4Cl)c[nH]3)ccnc2N1` (centres unmarked) [Compound 2.32], the pIC50 on B-Raf (V600E) is 8.48; against C-Raf (Y340D/Y341D), 9.05.

The term pIC50 denotes the negative decadic logarithm of the IC50, by convention in mol/L.
